Assay results published in patent publication US6235493A, “Amino acid substituted-cresyl violet, synthetic fluorogenic substrates for the analysis of agents in individual in vivo cells or tissue” (priority 1998, dated 2001).

Legend:
[1] = target: T1, dipeptidyl peptidase IV (DPPIV) (CD26) (Rattus norvegicus, UniProt P14740); test: cell-based; format: cell-based; details: for mode of inhibition of DPPIV: individual living rat hepatocytes, image analysis
T1 construct: individual freshly isolated living rat hepatocytes; endogenous in cells; host or cells: hepatocytes freshly isolated from livers of male Wistar rats
Experimental: Hepatocytes were isolated by collagenase perfusion of livers of male Wistar rats (200-250 g; HSD Animal Farm, Zeist, The Netherlands) after 24 h of starvation as described previously (30). The animals were exposed to a controlled dark-light cycle (light: 7:00 a.m.-7:00 p.m.) throughout the acclimatization period of at least 1 week. Before starvation, animals had free access to food (standard chow diet; Hope Farms, Woerden, The Netherlands) and water. The animals had always free access to water. During operation, the animals were under Nembutal anaesthesia. Animal care was performed according to the guidelines of the University of Amsterdam. Hepatocytes (5-10 mg dry mass/ml) were kept in Krebs-Henseleit bicarbonate medium containing 1.3 mM Ca^2+, 10 mM sodium Hepes (pH 7.4), 20 mM glucose and 1 mM octanoate on ice until enzyme assays. Homogenates were prepared by freezing cell suspensions in liquid nitrogen and subsequent thawing. One volume of homogenates and 10 volumes of 20 mM Tris-HCI buffer (pH 7.4) containing 1% (v/v) Triton X-100 were mixed and incubated at 4° C. under constant stirring for 60 min. One part of these homogenates was used for the determination of DPPIV activity. Another part was centrifuged (40,000 x g, 4° C., 20 min) and the supernatants were used as membrane fractions for the determination of DPPIV activity.
Analysis of DPPIV Activity
DPPIV activity was determined in hepatocytes using 6 approaches. Activity was determined in living hepatocytes with confocal scanning laser microscopy, image processing and analysis, flow cytometry, and fluorometry. Fluorometry was also used for the determination of activity in homogenates of hepatocytes and in membrane fractions of hepatocytes. Incubations were started at t=0 by adding an aliquot of 60 μl hepatocytes to 3 ml Krebs-Henseleit medium containing 0-50 μM (Ala-Pro)^2 -cresyl violet in the presence or absence of 0-50 μM Ala-Pip^p (OPh-4-Cl)2 (Enzyme Systems Products), which is a selective DPPIV inhibitor (31A,32A). Substrate and inhibitor were dissolved first in dimethylsulfoxide. The final concentration of dimethylsulfoxide in the incubation medium was 0.5% (v/v). Incubations were carried out at 20° C. Confocal scanning laser microscopy was performed after 100 μl of an assay medium containing hepatocytes was brought into a well formed by a stainless steel ring attached to a glass slide (33A). Images of cells were captured in time with a Leica confocal scanning laser microscope fitted to a Leica Fluovert inverted microscope equipped with a PL APO oil-immersion objective (63×, NA 1.40). Excitation was performed at 568 nm and fluorescence was captured at >595 nm. The pinhole aperture was set to provide an optimized image (34A). Cells were subjected to optical serial sectioning after each 60 sec of incubation up to 300 sec. Images in the X-Y plane were recorded with intervals of 0.5 μm in the Z direction. Each optical section was averaged 8 times. Images were recorded din a 512×512 pixel format. The size of each pixel represented 0.015 μm^2 in the object. Confocal data stacks of 20-30 optical sections were processed with standard Leica software package.
Image analysis was performed by transferring an aliquot of 100, μl of an incubation medium containing hepatocytes into an incubation chamber that consisted of an object glass and a cover glass separated by a spacer made of adhesion tape with a thickness of […]. The object glass was set on the stage of a fluorescencee microscope (Leitz Dialux 20, Wetzlar, Germany) with a ×25 objective (NA 0.75). A drop of medium was placed beside the cover glass and the chamber became filled by capillary forces in a few seconds. […]

[2] = test system: dipeptidyl peptidase IV (DPPIV); test: DPPIV activity in membrane fractions of hepatocytes (fluorometry); format: biochemical, rat; details: membrane fractions of the same hepatocyte suspensions
Experimental: Hepatocytes were isolated by collagenase perfusion of livers of male Wistar rats (200-250 g; HSD Animal Farm, Zeist, The Netherlands) after 24 h of starvation as described previously (30). The animals were exposed to a controlled dark-light cycle (light: 7:00 a.m.-7:00 p.m.) throughout the acclimatization period of at least 1 week. Before starvation, animals had free access to food (standard chow diet; Hope Farms, Woerden, The Netherlands) and water. The animals had always free access to water. During operation, the animals were under Nembutal anaesthesia. Animal care was performed according to the guidelines of the University of Amsterdam. […]
DPPIV activity was determined in hepatocytes using 6 approaches. Activity was determined in living hepatocytes with confocal scanning laser microscopy, image processing and analysis, flow cytometry, and fluorometry. […] Excitation was performed at 568 nm and fluorescence was captured at >595 nm. […] Images in the X-Y plane were recorded with intervals of 0.5 μm in the Z direction. […] Images were recorded din a 512×512 pixel format. […]
Calibration was performed by measuring fluorescence of a series of solutions of 0-10 μM cresyl violet in Krebs-Henseleit medium. These solutions were also used to test the properties of cresyl violet for quantitative purposes. The depth of the incubation chamber was 24 μm and the size of the area measured 240×170 μm. […]

[3] = Water solubility (stated); format: physicochemical; details: free cresyl violet; avoids accumulation around mitochondria
[4] = Fluorescence properties of cresyl violet (image analysis calibration); format: physicochemical
Experimental: Calibration was performed by measuring fluorescence of a series of solutions of 0-10 μM cresyl violet in Krebs-Henseleit medium. These solutions were also used to test the properties of cresyl violet for quantitative purposes. The depth of the incubation chamber was 24 μm and the size of the area measured 240×170 μm. The total volume that was measured was thus 0.001 μl. The amount of fluorescence captured by image analysis was linearly related with concentrations up to at least 10 μM when measured in a thin film of 24 μm which approximates the diameter of cells (FIG. 2A). Thus, cresyl violet has fluorescence properties that are necessary for quantitative fluorescence microscopy (36B). On the basis of FIG. 2A, it was calculated that 100 gray values corresponded with 6.7 fmoles cresyl violet. […] Flow cytometric analysis of production of cresyl violet in hepatorcytes was performed with a FAC-Star Plus (Becton and Dickinson, San Jose, Calif., USA) using the software program CellQuest (version 1.0; Becton and Dicksinson). Prior to analysis, cells were stained with the DNA dye Hoechst 3.3.3.4.2 (36 ,μg/ml; Hoechst Holland, Amsterdam, The Netherlands) for 30 min at 0° C. Analysis was started by established forward scatter and then substrate was added at t=0. Analysis was performed at a flow rate of 200 cells/sec. The parameters measured were time, forward scatter, fluorescence of Hoechst 3.3.3.4.2 dye (excitation at 350 nm, emission at 485 nm with a band width of 20 nm), and fluorescence of cresyl violet (excitation at 514 nm, emission at 630 nm with a band width of 22 nm). Filters were obtained from Becton and Dickenson. The power of the lasers was set at […]. Fluorometric analysis with time was carried out with a Perkin-Elmer LS 50 fluorescence spectrometer (Perkin-Elmer, Gouda, The Netherlands) under continuous magnetic stirring. Cuvettes with a light path of 1 cm were used. Excitation was performed at 591 nm with a slid width of 10 nm and emission was measured at 628 nm (slid width 10 nm). The first measurement was made at 5 sec after mixing cells and incubation medium.

T1 sequence (P14740 whole entry): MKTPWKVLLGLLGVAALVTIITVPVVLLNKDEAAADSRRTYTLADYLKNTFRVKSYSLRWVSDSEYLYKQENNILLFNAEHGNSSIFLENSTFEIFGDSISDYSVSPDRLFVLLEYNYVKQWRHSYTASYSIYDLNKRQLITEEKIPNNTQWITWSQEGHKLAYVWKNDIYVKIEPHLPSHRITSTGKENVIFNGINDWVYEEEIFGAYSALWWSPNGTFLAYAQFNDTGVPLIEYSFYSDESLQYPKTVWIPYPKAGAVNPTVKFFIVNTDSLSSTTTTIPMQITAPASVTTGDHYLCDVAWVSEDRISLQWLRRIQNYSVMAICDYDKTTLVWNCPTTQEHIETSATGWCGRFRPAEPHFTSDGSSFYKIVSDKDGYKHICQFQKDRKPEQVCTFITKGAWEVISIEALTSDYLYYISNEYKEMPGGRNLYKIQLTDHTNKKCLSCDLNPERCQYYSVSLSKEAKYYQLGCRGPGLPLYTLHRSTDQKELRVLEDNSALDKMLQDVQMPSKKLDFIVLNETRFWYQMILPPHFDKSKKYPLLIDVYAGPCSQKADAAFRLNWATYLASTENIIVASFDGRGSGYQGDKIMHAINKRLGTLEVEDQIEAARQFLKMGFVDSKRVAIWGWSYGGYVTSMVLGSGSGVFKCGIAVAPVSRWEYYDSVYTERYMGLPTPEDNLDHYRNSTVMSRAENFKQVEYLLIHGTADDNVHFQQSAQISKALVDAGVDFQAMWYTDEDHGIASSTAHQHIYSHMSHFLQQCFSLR

With `C[C@H](N)C(=O)N1CCCCC1P(=O)(Oc1ccc(Cl)cc1)Oc1ccc(Cl)cc1` (some centres unmarked) [Ala-Pip^p (OPh-4Cl)2, Ala-Pip^p (OPh-4-Cl)2] the Ki [1] was 7 µM, the “mode of inhibition of DPPIV” value [1] was “selective competitive inhibitor” and the “mode of inhibition of DPPIV” value ([1]; listed as dipeptide phosphonate inhibitor) was “competitively”.
With `C[C@H](N)C(=O)N1CCC[C@H]1C(=O)NC1=CC2Oc3cc(NC(=O)[C@@H]4CCCN4C(=O)[C@H](C)N)ccc3N=C2c2ccccc21` (stereo partly drawn) [Ala-Pro-cresyl violet, [Ala-Pro]^2-cresyl violet] the “inverse relationship between Km and Vmax in membrane fractions” value [2] was “lost”, the “Vmax in individual hepatocytes” value [1] was 4-16 nU and the Km ([1]; hepatocytes) was 6 to 22 µM. For the same compound, the “conversion rate in the rat with the highest Vmax and lowest Km vs rat with the lowest Vmax and highest Km” value ([1]; physiological substrate concentrations) was 10- to 20 fold.
In the case of `N=c1cc2oc3cc(N)ccc3nc-2c2ccccc12` [cresyl violet], the water solubility [3] is reported as “sufficiently water soluble”, the “fading of fluorescence during measurements in time” value ([4]; FIG. 2B) is reported as “Fading did not occur to any significant extent” and the “amount corresponding with 100 gray values” ([4]; image analysis calibration, FIG. 2A) is reported as 6.7 fmol. For the same compound, the “linearity of fluorescence with concentration (up to)” value ([4]; thin film of 24 μm, Krebs-Henseleit medium) was “at least 10 μM”.
